The results in this text go back to patent US7196077B2, “Tachykinin antagonists” (Glaxo Group Limited, priority 2001, dated 2007).

Counter-ions that a name gives are not always drawn.

The target of this assay is T1, recombinant human NK1 receptors (Homo sapiens, UniProt P25103).
T1 construct: expressed in transfected cells; host or cells: Chinese Hamster Ovary (CHO) cells, membrane preparation
T1 sequence (P25103 whole entry): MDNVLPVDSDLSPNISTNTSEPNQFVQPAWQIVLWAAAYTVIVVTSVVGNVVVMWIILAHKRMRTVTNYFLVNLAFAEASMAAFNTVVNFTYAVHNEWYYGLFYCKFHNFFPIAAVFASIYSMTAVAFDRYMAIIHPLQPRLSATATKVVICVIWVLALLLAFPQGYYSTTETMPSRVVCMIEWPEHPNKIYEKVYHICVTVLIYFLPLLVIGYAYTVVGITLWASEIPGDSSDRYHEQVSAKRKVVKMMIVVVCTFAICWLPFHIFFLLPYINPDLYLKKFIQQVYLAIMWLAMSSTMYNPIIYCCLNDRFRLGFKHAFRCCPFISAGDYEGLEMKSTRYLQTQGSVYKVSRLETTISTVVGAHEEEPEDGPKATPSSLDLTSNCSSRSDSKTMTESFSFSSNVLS
The assay can be described thus: NK1-receptor binding affinity, displacement of [3H]-substance P. The settings on record: negative logarithm of Ki; displacement of [3H]-substance P from recombinant human NK1 receptors in CHO cell membranes; average of at least two determinations. The method, then:
NK1-receptor binding affinity has been determined in vitro by the compounds' ability to displace [3H]-substance P (SP) from recombinant human NK1 receptors expressed in Chinese Hamster Ovary (CHO) cell membranes.
CHO cell membranes were prepared by using a modification of the method described by Dam T and Quirion R (Peptides, 7: 855–864, 1986). Thus ligand binding was performed in 0.4 mL of 50 mM HEPES, pH 7.4, containing 3 mM MnCl2, 0.02% BSA, 0.5 nM [^3H]-Substance P (30÷56 Ci/mmol, Amersham), a final membrane concentration of 25 μg of protein/ml, and the test compounds. The incubation proceeded at room temperature for 40 min. Non-specific binding was determined using excess of Substance P (1 μM) and represents about 6% of the total binding.
The affinity of the compound of the invention for NK1 receptor was determined using the NK1-receptor binding affinity method measuring in vitro by the compounds' ability to displace [3H]-substance P (SP) from recombinant human NK1 receptors expressed in Chinese Hamster Ovary (CHO) cell membranes. The affinity values are expressed as negative logarithm of the inhibition constant (Ki) of displacer ligands (pKi).
In general terms: Loss of bound radioactivity is the signal in a displacement assay; it reports binding, not function.
On to `Cc1cc(F)ccc1[C@H]1CNCCCN1C(=O)N(C)Cc1cc(C(F)(F)F)cc(C(F)(F)F)c1` [Example 1, 2-(S)-(4-Fluoro-2-methyl-phenyl)-[1,4]-diazepane-1-carboxylic acid, (3,5-bis-trifluoromethyl-benzyl)-methylamide hydrochloride], for which the Ki is 0.0347 nM.
Regarding `Cc1cc(F)ccc1[C@H]1CCNCCN1C(=O)N(C)Cc1cc(C(F)(F)F)cc(C(F)(F)F)c1` [Example 2, 7-(R)-(4-Fluoro-2-methyl-phenyl)-[1,4]-diazepane-1-carboxylic acid, (3,5-bis-trifluoromethyl-benzyl)-methylamide hydrochloride], the Ki is 0.0724 nM.
For `Cc1cc(F)ccc1[C@H]1CNCCCN1C(=O)N(C)[C@H](C)c1cc(C(F)(F)F)cc(C(F)(F)F)c1` [Example 3, 2-(S)-(4-Fluoro-2-methyl-phenyl)-[1,4]-diazepane-1-carboxylic acid, [1-(R)-(3,5-bis-trifluoromethyl-phenyl)-ethyl]-methylamide hydrochloride] the value was 0.0245 nM; for `Cc1cc(F)ccc1[C@H]1CCNCCN1C(=O)N(C)[C@H](C)c1cc(C(F)(F)F)cc(C(F)(F)F)c1` [Example 4, 7-(R)-(4-Fluoro-2-methyl-phenyl)-[1,4]-diazepane-1-carboxylic acid, [1-(R)-(3,5-bis-trifluoromethyl-phenyl)-ethyl]-methylamide hydrochloride], 0.0195 nM.
For `Cc1cc(F)ccc1[C@H]1CNCCCN1C(=O)N(C)Cc1cc(Cl)cc(Cl)c1` [Example 5, 2-(S)-(4-Fluoro-2-methyl-phenyl)-[1,4]-diazepane-1-carboxylic acid, (3,5-dichloro-benzyl)-methylamide hydrochloride] the value was 0.0661 nM; for `Cc1cc(F)ccc1[C@H]1CCNCCN1C(=O)N(C)Cc1cc(Cl)cc(Cl)c1` [Example 6, 7-(R)-(4-Fluoro-2-methyl-phenyl)-[1,4]-diazepane-1-carboxylic acid, (3,5-dichloro-benzyl)-methylamide hydrochloride], 0.0977 nM; for `Cc1cc(F)ccc1[C@H]1CNCCCN1C(=O)N(C)[C@@H](C)c1cc(C(F)(F)F)cc(C(F)(F)F)c1` [Example 7, 2-(S)-(4-Fluoro-2-methyl-phenyl)-[1,4]-diazepane-1-carboxylic acid, [1-(S)-(3,5-bis-trifluoromethyl-phenyl)-ethyl]-methylamide hydrochloride], 0.0479 nM.
As for `Cc1cc(F)ccc1[C@H]1CCNCCN1C(=O)N(C)[C@@H](C)c1cc(C(F)(F)F)cc(C(F)(F)F)c1` [Example 8, 7-(R)-(4-Fluoro-2-methyl-phenyl)-[1,4]-diazepane-1-carboxylic acid, [1-(S)-(3,5-bis-trifluoromethyl-phenyl)-ethyl]-methylamide hydrochloride], the Ki was 0.0457 nM.
In the case of `CN(Cc1cc(C(F)(F)F)cc(C(F)(F)F)c1)C(=O)N1CCCNC[C@@H]1c1ccc(F)cc1` [Example 12a, 2-(S)-(4-Fluoro-phenyl)-[1,4]-diazepane-1-carboxylic acid, (3,5bis-trifluoromethyl-benzyl)-methylamide hydrochloride], the Ki is 0.501 nM.
For `Cc1cc(F)ccc1[C@H]1CCN(C)CCN1C(=O)N(C)Cc1cc(Cl)cc(Cl)c1` [Example 13, 7-(R)-(4-Fluoro-2-methyl-phenyl)-4-methyl-[1,4]-diazepane-1-carboxylic acid, (3,5-dichloro-benzyl)-methylamide hydrochloride] the value was 0.295 nM; for `Cc1cc(F)ccc1[C@H]1CCN(C)CCN1C(=O)N(C)Cc1cc(C(F)(F)F)cc(C(F)(F)F)c1` [Example 14, 7-(R)-(4-Fluoro-2-methyl-phenyl)-4-methyl-[1,4]-diazepane-1-carboxylic acid, (3,5-bis-trifluoromethyl-benzyl)-methylamide hydrochloride], 0.0562 nM.
Regarding `Cc1cc(F)ccc1[C@H]1CCN(C)CCN1C(=O)N(C)[C@H](C)c1cc(C(F)(F)F)cc(C(F)(F)F)c1` [Example 15, 7-(R)-(4-Fluoro-2-methyl-phenyl)-4-methyl-[1,4]-diazepane-1-carboxylic acid, [1-(R)-(3,5-bis-trifluoromethyl-phenyl)-ethyl]-methylamide hydrochloride.], the inhibition constant Ki was 0.0309 nM.

For orientation: Ki means a dissociation constant, usually derived from enzyme kinetics or from competition with a known ligand.
